Here are results for three molecules from patent US20070021488A1, “Method for treating nervous system disorders and conditions” (Wyeth, priority 2005, published 2007).

Assay [1] deals with Spinal Nerve Ligation (SNL) Model of Neuropathic Pain. Description: Spinal Nerve Ligation (SNL) model of neuropathic pain, tactile hypersensitivity. The assay is classed as in vivo, rat. Particulars: 30 mg/kg IP, 30-300 minutes after administration, FIG. 7. The text has this: Subjects. Male Sprague-Dawley rats (Indianapolis, Ind.) weighing 150 to 200 g at time of arrival, were individually housed in wire cages in a climate-controlled room. A 12-hour light/dark cycle (lights on at 0630) was in effect, and food and water were available ad libitum.
Surgery—Spinal Nerve Ligation. Rats were anesthetized with 3.5% halothane in O2 at 1 L/min and maintained with 1.5% halothane in O2 during surgery. Ligation of the L5 and L6 nerves was produced by an incision through the left paraspinal muscles. The left L5 and L6 spinal nerves were isolated adjacent to the vertebral column and ligated tightly with 6-0 silk suture just distal to the dorsal root ganglion. The wound was closed in layers using 4-0 silk suture and wound clips. Testing began 7 days after surgery.
Assessment of tactile hypersensitivity. […] Baseline tactile sensitivity was assessed using a series of calibrated von Frey monofilaments (Stoelting; Wood Dale, Ill.) 0 to 3 days before surgery. […] The ability of a single dose of test compound to reverse established hypersensitivity was assessed using a time course procedure. […]
Results are presented as the 50% threshold values (50% threshold in g force) estimated by the Dixon non-parametric test. […] Significant main effects were analyzed further by subsequent least significant difference analysis. […]

The target in assay [2] is T1, human dopamine transporter (hDAT) (Homo sapiens, UniProt Q01959).
T1 construct: purchased Perkin Elmer RBHDATM
T1 sequence (Q01959 whole entry): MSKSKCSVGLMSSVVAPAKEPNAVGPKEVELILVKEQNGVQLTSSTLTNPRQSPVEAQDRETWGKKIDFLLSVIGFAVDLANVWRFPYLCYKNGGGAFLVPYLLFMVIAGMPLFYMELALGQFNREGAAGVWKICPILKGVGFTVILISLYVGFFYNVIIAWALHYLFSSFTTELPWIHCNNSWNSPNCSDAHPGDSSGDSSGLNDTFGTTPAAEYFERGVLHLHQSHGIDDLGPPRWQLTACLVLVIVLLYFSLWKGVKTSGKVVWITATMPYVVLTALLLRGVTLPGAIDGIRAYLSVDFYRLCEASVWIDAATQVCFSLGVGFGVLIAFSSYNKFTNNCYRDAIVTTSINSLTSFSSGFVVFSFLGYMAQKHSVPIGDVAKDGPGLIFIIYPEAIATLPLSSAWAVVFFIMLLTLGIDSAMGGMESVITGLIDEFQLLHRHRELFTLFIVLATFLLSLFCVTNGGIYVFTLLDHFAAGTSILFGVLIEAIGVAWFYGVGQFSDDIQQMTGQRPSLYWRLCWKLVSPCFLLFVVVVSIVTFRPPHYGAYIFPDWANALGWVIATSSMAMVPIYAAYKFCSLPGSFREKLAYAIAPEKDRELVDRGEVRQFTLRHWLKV
Description: Dopamine transporter (hDAT) membrane binding assay. The procedure: (§1) MDCK-Net6 cells, stably transfected with human hNET [15] were cultured in growth medium containing high glucose DMEM (Gibco, Cat. No. 11995), 10% FBS (dialyzed, heat-inactivated, US Bio-Technologies, Lot FBD1129HI) and 500 μg/ml G418 (Gibco, Cat. No. 10131). Cells were plated at 300,000/T75 flask and cells were split twice weekly. The JAR cell line (human placental choriocarcinoma) was purchased from ATCC (Cat. No. HTB-144). The cells were cultured in growth medium containing RPMI 1640 (Gibco, Cat. No. 72400), 10% FBS (Irvine, Cat. No. 3000), 1% sodium pyruvate (Gibco, Cat. No. 1136) and 0.25% glucose. Cells were plated at 250,000 cells/T75 flask and split twice weekly. For cell based assays, cells were plated in Wallac 96-well sterile plates (Perkin Elmer, Cat. No. 3983498). For the human dopamine transporter (hDAT) binding assay, membranes from cells expressing recombinant hDAT are purchased from Perkin Elmer (Cat. No. RBHDATM, Lot#2227) and maintained at −80° C. until assay day.
For each experiment, a data stream of cpm values collected from the Wallac Microbeta counter was downloaded to a Microsoft Excel statistical application program. Calculations of IC50/EC50 values were made using the transformed-both-sides logistic dose response program written by Wyeth Biometrics Department.

Assay [3] concerns ovariectomized (OVX) rats. Description: Telemetry rat model of ovariectomy-induced thermoregulatory dysfunction (tail skin temperature). Type of assay: in vivo. Conditions: 30 mg/kg, sc. The text has this:
This model has been modified from a previously reported protocol describing estrogen regulation of diurnal tail skin temperature (TST) patterns (Berendsen, et al., European Journal of Pharmacology, 2001, 419(1): 47-54). […] A temperature and physical activity transmitter (PhysioTel TA10TA-F40, Data Sciences International) was implanted subcutaneously in the dorsal scapular region and the tip of the temperature probe was tunneled subcutaneously 2.5 cm beyond the base of the tail. After a 7-day recovery period, TST readings were continuously recorded for the remainder of the study. Tail skin temperature readings were collected from each animal every 5 minutes with values obtained over a 10 second sampling period. The day before test day, an average baseline TST value was calculated for each animal by averaging temperature readings recorded during the 12 hour active (dark) phase. […]
Statistical analysis: Evaluation of a compound's ability to restore normal lowering of TST in the telemetry model was analyzed using hourly TST values calculated for each animal by averaging the 12 temperature readings obtained every 5 minutes over that recording time. […]
The effect of test compound is measured by evaluating the following parameters in this model: onset of action, duration of effect on TST, maximal change in TST and mean change in TST over the duration of the compound effect.

Assay [4] concerns the target human norepinephrine transporter (hNET) (Homo sapiens, UniProt P23975). Briefly: cell-based. The procedure:
as §1
On day 1, cells were plated at 3,000 cells/well in growth medium and maintained in a cell incubator (37° C., 5% CO2). […] The plates were counted in a Wallac Microbeta counter (PerkinElmer) to collect the raw cpm data. […]

Assay [5] concerns the target T2, human serotonin transporter (hSERT) (Homo sapiens, UniProt P31645).
T2 construct: The methods for 5-HT functional reuptake using the JAR cell line; host or cells: JAR (human placental choriocarcinoma), staurosporine-stimulated
Description: Serotonin (5-HT) uptake assay in JAR cells. The assay is classed as cell-based. Conditions: [3H]5-HT uptake, read-out: hSERT function uptake (EC50 in nm). The procedure: as §1
The methods for 5-HT functional reuptake using the JAR cell line were modified using a previous literature report. On day 1, cells were plated at 15,000 cells/well in 96-well plates containing growth medium (RPMI 1640 with 10% FBS) and maintained in a cell incubator (37° C., 5% CO2). […] The plates were counted in a Wallac Microbeta counter (PerkinElmer) to collect the raw cpm data. […]

Values joined by “and” are separate entries in the source; they are usually repeats but may differ in a detail not shown here. Equal entries are not always repeated.

T2 sequence (P31645 whole entry): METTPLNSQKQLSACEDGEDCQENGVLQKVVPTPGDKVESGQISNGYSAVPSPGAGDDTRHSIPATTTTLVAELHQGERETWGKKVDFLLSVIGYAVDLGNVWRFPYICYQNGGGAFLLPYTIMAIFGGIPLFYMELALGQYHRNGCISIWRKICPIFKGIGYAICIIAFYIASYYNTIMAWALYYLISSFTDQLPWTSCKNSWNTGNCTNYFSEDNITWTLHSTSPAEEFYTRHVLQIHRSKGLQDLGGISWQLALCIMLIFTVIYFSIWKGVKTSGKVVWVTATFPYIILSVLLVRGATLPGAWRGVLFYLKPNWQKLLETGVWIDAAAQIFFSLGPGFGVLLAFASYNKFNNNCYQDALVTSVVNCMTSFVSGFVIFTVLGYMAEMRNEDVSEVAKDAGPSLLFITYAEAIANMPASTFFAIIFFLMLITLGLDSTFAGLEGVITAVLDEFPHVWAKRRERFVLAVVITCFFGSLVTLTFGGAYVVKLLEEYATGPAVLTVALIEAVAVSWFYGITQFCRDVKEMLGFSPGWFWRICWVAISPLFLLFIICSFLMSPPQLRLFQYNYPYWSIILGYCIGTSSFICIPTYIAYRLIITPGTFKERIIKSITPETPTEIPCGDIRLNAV
human norepinephrine transporter (hNET), sequence (P23975 whole entry): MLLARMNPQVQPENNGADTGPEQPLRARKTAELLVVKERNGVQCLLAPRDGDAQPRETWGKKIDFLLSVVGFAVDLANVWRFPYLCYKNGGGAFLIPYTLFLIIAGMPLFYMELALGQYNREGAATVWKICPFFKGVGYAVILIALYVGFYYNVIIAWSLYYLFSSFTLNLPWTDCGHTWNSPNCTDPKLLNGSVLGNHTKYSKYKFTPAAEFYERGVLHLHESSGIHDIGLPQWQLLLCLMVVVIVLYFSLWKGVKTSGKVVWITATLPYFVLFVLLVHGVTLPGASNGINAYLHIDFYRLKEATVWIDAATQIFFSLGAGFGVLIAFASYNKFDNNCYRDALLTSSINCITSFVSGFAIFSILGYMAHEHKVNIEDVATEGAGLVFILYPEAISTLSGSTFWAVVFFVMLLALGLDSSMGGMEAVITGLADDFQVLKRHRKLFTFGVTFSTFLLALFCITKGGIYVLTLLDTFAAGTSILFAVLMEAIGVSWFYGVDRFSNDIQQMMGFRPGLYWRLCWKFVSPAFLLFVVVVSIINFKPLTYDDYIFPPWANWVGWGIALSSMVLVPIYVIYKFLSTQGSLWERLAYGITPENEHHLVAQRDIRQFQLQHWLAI

Take `Clc1ccc(C23CNCC2C3)cc1Cl` (racemic) [Racemic 1-(3,4-dichlorophenyl)-3-azabicyclo[3.1.0]hexane, 1-(3,4-dichlorophenyl)-3-azabicyclo[3.1.0]hexane]: the “Reversal of tactile allodynia in the SNL neuropathic pain model” value in assay [1] was “significantly reverses tactile allodynia”.

Turning to `Cc1ccc(C23CNCC2C3)cc1` (racemic) [Racemic 1-(4-methylphenyl)-3-azabicyclo[3.1.0]hexane, 1-(4-methylphenyl)-3-azabicyclo[3.1.0]hexane], the “hDAT binding (% I at 1 μM)” value in assay [2] (1 μM) came to 26.5 % I. Besides, the “hDAT binding (% I at 10 μM)” value in assay [2] is 45 % I and 52.1 % I. Further, the “Restoration of normal TST in OVX-induced thermoregulatory dysfunction telemetry model” value in assay [3] was “restores normal TST”.

Turning to `Cc1ccc([C@@]23CNC[C@@H]2C3)cc1` (single isomer, unassigned) [(+)-1-(4-methylphenyl)-3-azabicyclo[3.1.0]hexane], the half-maximal effective concentration (EC50) in assay [4] amounted to 0.148 µM; in assay [5] it was 7.35 µM. Moreover, the “hDAT binding (% I at 10 μM)” value in assay [2] is on record as 51 % I. In addition, the “Restoration of normal TST in OVX-induced thermoregulatory dysfunction telemetry model” value in assay [3] is given as “restores normal TST”.
